The target of assay [1] is T1, Rab11A (Homo sapiens, UniProt P62491, S25N, form not given).
T1 construct: Rab11A with C-terminal His-tag kept, N-terminal GST cut by TEV; E. coli BL21 C41 (residues 1-211 given for the His-tagged HDX construct)
As to the kind of experiment: Mant-GDP loading, then fluorescence release on GEF-driven exchange. In kind it is binding. The note with it: labelled compound; without SH3BP5.

The target of the next assay is T2, Rab8 (Homo sapiens, UniProt P61006).
T2 construct: gene RAB8A; recombinant in E. coli, N-terminal GST cut by TEV
T2 sequence (P61006 whole entry): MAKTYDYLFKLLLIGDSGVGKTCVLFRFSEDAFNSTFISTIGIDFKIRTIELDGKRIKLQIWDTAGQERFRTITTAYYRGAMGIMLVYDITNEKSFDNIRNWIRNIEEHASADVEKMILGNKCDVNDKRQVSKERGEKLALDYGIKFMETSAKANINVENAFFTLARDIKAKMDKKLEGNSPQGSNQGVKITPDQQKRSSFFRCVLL
As to the kind of experiment: Mant-GDP loading, fluorescence release assay. It counts as binding. The settings on record: labelled compound; nucleotide site; Mg2+, 100 uM GTPgammaS, SH3BP5 as exchange factor.

Assay [2] deals with T3, Rab11A (Homo sapiens, UniProt P62491, S40F, form not given).
T3 construct: Rab11A with C-terminal His-tag kept, N-terminal GST cut by TEV; E. coli BL21 C41 (residues 1-211 given for the His-tagged HDX construct)
T3 sequence (P62491 1-211 S40F, form open): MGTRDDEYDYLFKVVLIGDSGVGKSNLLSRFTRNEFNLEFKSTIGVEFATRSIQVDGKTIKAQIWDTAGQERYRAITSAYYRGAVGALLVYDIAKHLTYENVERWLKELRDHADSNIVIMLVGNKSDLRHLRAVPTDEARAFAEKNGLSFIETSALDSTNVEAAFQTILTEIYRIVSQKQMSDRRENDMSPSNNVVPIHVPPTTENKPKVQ
As to the kind of experiment: Mant-GDP loading, then fluorescence release on GEF-driven exchange. It counts as binding. The note with it: labelled compound; nucleotide site; Mg2+, 100 uM GTPgammaS, with and without SH3BP5.

A further assay has as its target T4, Rab25 (Homo sapiens, UniProt P57735).
T4 construct: C-terminal His-tag, N-terminal GST cut by TEV; E. coli Rosetta
The assay is described as above. It counts as binding. The settings on record: labelled compound; nucleotide site; Mg2+, 100 uM GTPgammaS, SH3BP5 as exchange factor.

Assay [3] has as its target T5, Rab11A (Homo sapiens, UniProt P62491, F36A, form not given).
T5 construct: Rab11A with C-terminal His-tag kept, N-terminal GST cut by TEV; E. coli BL21 C41 (residues 1-211 given for the His-tagged HDX construct)
The assay is described as above. The settings on record: labelled compound; nucleotide site; Mg2+, 100 uM GTPgammaS, with and without SH3BP5. It counts as binding.

Assay [4] concerns the target T6, Rab11A (Homo sapiens, UniProt P62491, K24R, form not given).
T6 construct: Rab11A with C-terminal His-tag kept, N-terminal GST cut by TEV; E. coli BL21 C41 (residues 1-211 given for the His-tagged HDX construct)
The assay is described as above. It counts as binding. The note with it: labelled compound; nucleotide site; Mg2+, 100 uM GTPgammaS, with and without SH3BP5.

The target of another assay is T7, Rab2A (Homo sapiens, UniProt P61019).
T7 construct: recombinant in E. coli, N-terminal GST cut by TEV
T7 sequence (P61019 whole entry): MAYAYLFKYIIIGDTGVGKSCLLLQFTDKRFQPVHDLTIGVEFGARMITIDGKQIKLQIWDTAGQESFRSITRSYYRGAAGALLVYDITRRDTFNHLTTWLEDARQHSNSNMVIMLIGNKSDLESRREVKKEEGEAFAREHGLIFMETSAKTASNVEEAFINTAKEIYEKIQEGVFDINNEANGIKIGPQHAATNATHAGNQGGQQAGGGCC
Kind of assay: Mant-GDP loading, fluorescence release assay. The settings on record: labelled compound; nucleotide site; Mg2+, 100 uM GTPgammaS, SH3BP5 as exchange factor. In kind it is binding.

In assay [5] the target is T8, Rab11A (Homo sapiens, UniProt P62491, R82C, form not given).
T8 construct: Rab11A with C-terminal His-tag kept, N-terminal GST cut by TEV; E. coli BL21 C41 (residues 1-211 given for the His-tagged HDX construct)
T8 sequence (P62491 1-211 R82C, form open): as the sequence (P62491 1-211 S40F, form open) above, with F40S, R82C counted along it
Kind of assay: Mant-GDP loading, then fluorescence release on GEF-driven exchange. It counts as binding. The note with it: labelled compound; nucleotide site; Mg2+, 100 uM GTPgammaS, with and without SH3BP5.

Another assay has as its target T9, Rab14 (Homo sapiens, UniProt P61106).
T9 construct: recombinant in E. coli, N-terminal GST cut by TEV
As to the kind of experiment: Mant-GDP loading, fluorescence release assay. In kind it is binding. The note with it: labelled compound; nucleotide site; Mg2+, 100 uM GTPgammaS, SH3BP5 as exchange factor.

The target of assay [6] is T10, Rab11A (Homo sapiens, UniProt P62491, I44A, form not given).
T10 construct: Rab11A with C-terminal His-tag kept, N-terminal GST cut by TEV; E. coli BL21 C41 (residues 1-211 given for the His-tagged HDX construct)
T10 sequence (P62491 1-211 I44A, form open): as the sequence (P62491 1-211 S40F, form open) above, with F40S, I44A counted along it
Kind of assay: Mant-GDP loading, then fluorescence release on GEF-driven exchange. It counts as binding. The settings on record: labelled compound; nucleotide site; Mg2+, 100 uM GTPgammaS, with and without SH3BP5.

The target in assay [7] is T11, Rab11A (Homo sapiens, UniProt P62491).
T11 construct: Rab11A with C-terminal His-tag kept, N-terminal GST cut by TEV; E. coli BL21 C41 (residues 1-211 given for the His-tagged HDX construct)
The assay is described as above. It counts as binding. The settings on record: labelled compound; nucleotide site; Mg2+, 100 uM GTPgammaS, SH3BP5 as exchange factor.

In the next assay the target is T12, Rab12 (Homo sapiens, UniProt Q6IQ22).
T12 construct: recombinant in E. coli, N-terminal GST cut by TEV
T12 sequence (Q6IQ22 whole entry): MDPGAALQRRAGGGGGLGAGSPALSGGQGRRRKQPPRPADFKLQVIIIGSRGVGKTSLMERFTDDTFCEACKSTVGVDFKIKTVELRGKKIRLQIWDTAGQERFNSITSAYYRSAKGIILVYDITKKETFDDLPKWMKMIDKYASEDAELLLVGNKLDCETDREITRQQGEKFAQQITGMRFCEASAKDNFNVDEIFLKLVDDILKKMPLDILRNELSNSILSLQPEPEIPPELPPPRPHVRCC
As to the kind of experiment: Mant-GDP loading, fluorescence release assay. In kind it is binding. The settings on record: labelled compound; nucleotide site; Mg2+, 100 uM GTPgammaS, SH3BP5 as exchange factor.

The target in assay [8] is T13, Rab11A (Homo sapiens, UniProt P62491, L38P, form not given).
T13 construct: Rab11A with C-terminal His-tag kept, N-terminal GST cut by TEV; E. coli BL21 C41 (residues 1-211 given for the His-tagged HDX construct)
T13 sequence (P62491 1-211 L38P, form open): as the sequence (P62491 1-211 S40F, form open) above, with L38P, F40S counted along it
As to the kind of experiment: Mant-GDP loading, then fluorescence release on GEF-driven exchange. In kind it is binding. The settings on record: labelled compound; nucleotide site; Mg2+, 100 uM GTPgammaS, with and without SH3BP5.

Assay [9] deals with T14, Rab11A (Homo sapiens, UniProt P62491, Q70L, form not given).
T14 construct: Rab11A with C-terminal His-tag kept, N-terminal GST cut by TEV; E. coli BL21 C41 (residues 1-211 given for the His-tagged HDX construct)
T14 sequence (P62491 1-211 Q70L, form open): as the sequence (P62491 1-211 S40F, form open) above, with F40S, Q70L counted along it
Described as above. In kind it is binding. The settings on record: labelled compound; nucleotide site; Mg2+, 100 uM GTPgammaS, SH3BP5 as exchange factor.

A further assay concerns the target T15, Rab4B (Homo sapiens, UniProt P61018).
T15 construct: recombinant in E. coli, N-terminal GST cut by TEV
As to the kind of experiment: Mant-GDP loading, fluorescence release assay. The note with it: labelled compound; nucleotide site; Mg2+, 100 uM GTPgammaS, SH3BP5 as exchange factor. It counts as binding.

For assay [10], the target named is T16, SH3BP5 (31–455), N-terminally truncated (UniProt O60239 31-455).
T16 construct: also called N-terminally truncated SH3BP5 (31–455); N-terminally truncated variant of SH3BP5; source: E. coli BL21 C41, purified (GSTrap, TEV cleavage, HiTrap Q, SEC); not shown: GST, N-terminal, cleaved
T16 sequence (looked up): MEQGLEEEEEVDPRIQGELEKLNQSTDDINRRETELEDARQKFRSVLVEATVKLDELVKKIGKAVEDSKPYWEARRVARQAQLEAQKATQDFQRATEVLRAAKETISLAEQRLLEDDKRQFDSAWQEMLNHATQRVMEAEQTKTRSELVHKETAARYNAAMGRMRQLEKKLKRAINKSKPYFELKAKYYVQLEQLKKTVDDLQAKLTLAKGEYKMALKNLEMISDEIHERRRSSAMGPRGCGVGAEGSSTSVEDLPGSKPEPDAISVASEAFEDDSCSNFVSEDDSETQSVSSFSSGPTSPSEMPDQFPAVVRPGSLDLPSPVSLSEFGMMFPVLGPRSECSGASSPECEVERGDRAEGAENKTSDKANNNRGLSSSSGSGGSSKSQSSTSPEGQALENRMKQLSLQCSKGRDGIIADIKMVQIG
Kind of assay: HDX-MS; 0.4 µM C-terminally His-tagged Rab11A (1–211) and 0.4 µM SH3BP5 (31–455), with or without 0.2 mg/mL nickelated lipid vesicles; D2O buffer 10 mM HEPES pH 7.5, 200 mM NaCl; 3, 30, 300, 3000 s at room temperature. The settings on record: both partners purified.

In assay [11] the target is WT Rab11A (1–211, C-term his) (human) (UniProt P62491).

T15 sequence (P61018 whole entry): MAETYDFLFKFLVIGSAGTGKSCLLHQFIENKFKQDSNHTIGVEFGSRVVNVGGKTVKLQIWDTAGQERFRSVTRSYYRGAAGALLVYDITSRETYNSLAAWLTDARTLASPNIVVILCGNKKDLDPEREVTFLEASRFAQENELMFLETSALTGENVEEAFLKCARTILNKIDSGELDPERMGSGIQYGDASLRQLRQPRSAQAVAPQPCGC
T9 sequence (P61106 whole entry): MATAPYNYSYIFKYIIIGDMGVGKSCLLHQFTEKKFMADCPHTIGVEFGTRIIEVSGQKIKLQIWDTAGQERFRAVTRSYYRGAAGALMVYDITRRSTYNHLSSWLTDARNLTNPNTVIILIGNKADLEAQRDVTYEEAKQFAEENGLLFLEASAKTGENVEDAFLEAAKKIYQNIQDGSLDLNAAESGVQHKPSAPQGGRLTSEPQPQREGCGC
T5 sequence (P62491 1-211 F36A, form open): as the sequence (P62491 1-211 S40F, form open) above, with F36A, F40S counted along it
T4 sequence (P57735 whole entry): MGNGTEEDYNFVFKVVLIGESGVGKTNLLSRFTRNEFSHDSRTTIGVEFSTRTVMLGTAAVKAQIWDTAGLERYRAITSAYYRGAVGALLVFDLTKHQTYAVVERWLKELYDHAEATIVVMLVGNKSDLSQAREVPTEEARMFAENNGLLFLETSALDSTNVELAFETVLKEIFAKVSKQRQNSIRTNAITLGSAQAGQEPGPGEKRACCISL
T1 sequence (P62491 1-211 S25N, form open): as the sequence (P62491 1-211 S40F, form open) above, with S25N, F40S counted along it
T6 sequence (P62491 1-211 K24R, form open): as the sequence (P62491 1-211 S40F, form open) above, with K24R, F40S counted along it

For `CNc1ccccc1C(=O)O[C@H]1C[C@H](n2cnc3c(=O)[nH]c(N)nc32)O[C@@H]1COP(=O)(O)OP(=O)(O)O` [Mant-GDP, 3-(N-methyl-anthraniloyl)-2-deoxy-GDP], the “Mant-GDP loading, then fluorescence release on GEF-driven exchange” value at Rab11A [1] was “Rab11A (S25N) caused rapid release of Mant-GDP even in the absence of SH3BP5”; at Rab11A [2] it was “Rab2A (L38P), Rab8 (S40F), and Rab14 (K41P) were also found to decrease GEF activity”; at Rab25, “Rab11 isoforms Rab11A and Rab25 loaded with the fluorescent GDP analog”; at Rab11A [3], “F36 and I44 residues, with mutation of these residues to Alanine”; at Rab11A [4] it was “this mutant had rapid nucleotide exchange even in the absence of SH3BP5”; on Rab11A [5], “with R82 only partially decreasing SH3BP5 GEF activity”. Further, the “Mant-GDP loading, then fluorescence release on GEF-driven exchange” value at Rab11A [6] is “F36 and I44 residues, with mutation of these residues to Alanine”; on Rab11A [7] it was “Rab11 isoforms Rab11A and Rab25 loaded with the fluorescent GDP analog”; at Rab11A [8], “Rab2A (L38P), Rab8 (S40F), and Rab14 (K41P) were also found to decrease GEF activity”; at Rab11A [9], “GEF assays on Q70L Rab11A showed a slightly elevated GEF-mediated nucleotide exchange rate”. Besides, the “Mant-GDP loading, fluorescence release assay” value on Rab8, on Rab2A, at Rab14, at Rab12 and on Rab4B was “panel of evolutionarily related Rab GTPases loaded with Mant-GDP” each time.

B1: WT Rab11A (1–211, C-term his) (natural protein, human, UniProt P62491 1-211, looked up)
chain: MGTRDDEYDYLFKVVLIGDSGVGKSNLLSRFTRNEFNLESKSTIGVEFATRSIQVDGKTIKAQIWDTAGQERYRAITSAYYRGAVGALLVYDIAKHLTYENVERWLKELRDHADSNIVIMLVGNKSDLRHLRAVPTDEARAFAEKNGLSFIETSALDSTNVEAAFQTILTEIYRIVSQKQMSDRRENDMSPSNNVVPIHVPPTTENKPKVQ
notes: Rab11A, residues 1-211, wild type; The limits 1-211 are printed for the HDX-MS experiment; In GEF assays it was loaded with Mant-GDP; also called Rab11A-His6; Rab11a-His6; source: E. coli BL21 C41, purified (GSTrap, TEV cleavage, HiTrap Q, SEC); not shown: GST, N-terminal, cleaved; His6, C-terminal, kept
Consider B1, for which the binding result in assay [10] was “binds”.

B2: SH3BP5 (LNQ52AAA) (natural protein)
chain: MDAALKRSRSEEPAEILPPARDEEEEEEEGMEQGLEEEEEVDPRIQGELEKAAASTDDINRRETELEDARQKFRSVLVEATVKLDELVKKIGKAVEDSKPYWEARRVARQAQLEAQKATQDFQRATEVLRAAKETISLAEQRLLEDDKRQFDSAWQEMLNHATQRVMEAEQTKTRSELVHKETAARYNAAMGRMRQLEKKLKRAINKSKPYFELKAKYYVQLEQLKKTVDDLQAKLTLAKGEYKMALKNLEMISDEIHERRRSSAMGPRGCGVGAEGSSTSVEDLPGSKPEPDAISVASEAFEDDSCSNFVSEDDSETQSVSSFSSGPTSPSEMPDQFPAVVRPGSLDLPSPVSLSEFGMMFPVLGPRSECSGASSPECEVERGDRAEGAENKTSDKANNNRGLSSSSGSGGSSKSQSSTSPEGQALENRMKQLSLQCSKGRDGIIADIKMVQIG
In turn, B2 had a GEF activity on Rab11A (Mant-GDP release), mutant (1000 nM) compared with WT SH3BP5 (52 nM) (fold decrease) in assay [11] of more than 100.

The values are drawn from publication PMC6138693, “Structural determinants of Rab11 activation by the guanine nucleotide exchange factor SH3BP5” (Nature Communications, 2018).
